Experimental data taken from US11339165B2, “Pyrazolopyrimidines having activity against the respiratory syncytial virus (RSV)” (priority 2017, dated 2022).
Like-named read-outs stand apart in the source and are kept apart here.

Columns and labels:
[1] = tested on: rgRSV224 virus; experiment: Antiviral activity: rgRSV224 (GFP) replication in HeLa cells; type: cell-based, respiratory syncytial virus (RSV)
[2] = tested on: HeLa cells; experiment: Cytotoxicity in HeLa cells (ATP content, ATPlite kit); details: read-out: TOX HELA CC50; HeLa cells, three days incubation, ATP content
[3] = tested on: HeLa cells
[4] = Cytotoxicity in HeLa cells (ATP content, ATPlite kit); details: human
[5] = Pharmacokinetics after single intravenous administration in the fasted male Beagle dog; type: in vivo; details: intravenous administration at 1 mg/kg in dogs, first 8 hours after administration
Description: E.2 Pharmacokinetics after Single Intravenous Administration in the Fasted Male Beagle Dog
The test compound was dissolved in a 20% (w/v) hydroxypropyl-β-cyclodextrin (HP-beta-CD) solution at a final concentration of 2 mg/mL for the intravenous formulation. NaOH was added to the formulations to facilitate dissolution and after total dissolution the pH was adjusted with HCl to 8.4. The intravenous (IV) formulation was made isotonic with mannitol. Prior to dosing, all formulations were stored at room temperature and protected from light. The IV formulation was dosed in a cephalic vein at 0.5 mL/kg to obtain a final dose of 1 mg/kg.
Three male Beagle dogs, with a mean weight of 10.9±1.1 kg, were used. A complete concentration time profile was obtained from each individual animal. Prior to dosing, animals were fasted overnight. Their standard dry diet was returned to them at 2 hours post dose. Tap water was available ad libitum.
From each individual animal, blood samples were taken at 7 and 20 minutes, 1, 2, 4, 7, 24 and 48 hours after intravenous dose administration. […] Plasma samples were analysed using a qualified research LC-MS/MS method. The key analytical performance (linearity, upper and lower limit of quantification, accuracy and precision) of the method was reported together with the plasma concentrations. The lower limit of quantification (LLOQ) was 10.0 ng/mL. […]

[6] = in vitro; details: human, TOX HELA CC50 (μM)
[7] = rgRSV224 virus (MOI=1), HeLa cells, GFP expression three days post-virus exposure, read-out: RSV HELA EC50
[8] = human respiratory syncytial virus, HeLa, 72 h, read-out: RSV HELA EC50 (μM), rgRSV224 virus (MOI=1), HeLa cells, GFP expression three days post-virus exposure

## C[C@@H]1c2ccccc2CCN1C(=O)c1cc(C2CC2)n2nc(-c3ccc(N4C[C@@H](C(N)=O)C[C@H]4C)cc3F)cc2n1 (relative stereo) [Compound 34, (3*S,5*R)-1-(4-{7-cyclopropyl-5-[(1R)-1-methyl-1,2,3,4-tetrahydroisoquinoline-2-carbonyl]pyrazolo[1,5-a]pyrimidin-2-yl}-3-fluorophenyl)-5-methylpyrrolidine-3-carboxamide]
[1]; [7]
  EC50: 0.037 µM
[2]
  CC50: 23.1 µM

## C[C@@H]1c2ccccc2CCN1C(=O)c1cc(C2CC2)n2nc(-c3ccc(N4C[C@@H](C(N)=O)C[C@@H]4C)cc3F)cc2n1 (relative stereo) [Compound 35, (3*S,5*S)-1-(4-{7-cyclopropyl-5-[(1R)-1-methyl-1,2,3,4-tetrahydroisoquinoline-2-carbonyl]pyrazolo[1,5-a]pyrimidin-2-yl}-3-fluorophenyl)-5-methylpyrrolidine-3-carboxamide]
[1]; [7]
  EC50: 0.033 µM
[3]
  CC50: 25.5 µM

## C[C@@H]1c2ccccc2CCN1C(=O)c1cc(C2CC2)n2nc(-c3ccc(N4CCC(O)(CO)C4)cc3F)cc2n1 (single isomer, unassigned) [Compound 104]
[1]; read-out: RSV HELA EC50, rgRSV224 virus (MOI=1), HeLa cells, GFP expression three days post-virus exposure
  EC50: 0.025 µM
[3]; human, 3 days
  CC50: 28.2 µM

## C[C@@H]1c2ccccc2CCN1C(=O)c1cc(C2CC2)n2nc(-c3ccc(N4CC[C@@H](NP(C)(C)=O)C4)cc3F)cc2n1 [Compound 30, (1R)-2-(7-Cyclopropyl-2-{4-[(3R)-3-[(dimethylphosphoryl)amino]pyrrolidin-1-yl]-2-fluorophenyl}pyrazolo[1,5-a]pyrimidine-5-carbonyl)-1-methyl-1,2,3,4-tetrahydro-isoquinoline]
[1]; [8]
  EC50: 0.036 µM
[4]
  CC50 at 3 days: 33.9 µM

## C[C@@H]1c2ccccc2CCN1C(=O)c1cc(C2CC2)n2nc(-c3ccc(N4CC[C@H](NP(C)(C)=O)C4)cc3F)cc2n1 [Compound 31, (1R)-2-(7-Cyclopropyl-2-{4-[(3S)-3-[(dimethylphosphoryl)amino]pyrrolidin-1-yl]-2-fluorophenyl}pyrazolo[1,5-a]pyrimidine-5-carbonyl)-1-methyl-1,2,3,4-tetrahydro-isoquinoline]
[1]; [8]
  EC50: 0.036 µM
[4]
  CC50 at 3 days: 39.1 µM

## CNC(=O)[C@H]1CCN(c2ccc(-c3cc4nc(C(=O)N5CCc6ccccc6[C@H]5C)cc(C5CC5)n4n3)c(F)c2)C1 [Compound 37, (3S)-1-(4-{7-Cyclopropyl-5-[(1R)-1-methyl-1,2,3,4-tetrahydroisoquinoline-2-carbonyl]pyrazolo[1,5-a]pyrimidin-2-yl}-3-fluorophenyl)-N-methylpyrrolidine-3-carboxamide]
[1]; [8]
  EC50: 0.019 µM
[5]
  plasma concentration profile: does not show this rapid decline
other
  melting point: 123.18 °C
[6]
  CC50 at 3 days: 62 µM
